Values quoted from earlier work in US12702587B2, “Ophthalmic device” (aVISI Ltd., priority 2020, dated 2026).
Counter-ions that a name gives are not always drawn.

Details: from chitosan nanoparticles; phosphate buffer saline of pH 7.4; in vitro

release of timolol maleate (duration of slow release): up to 24 hours
SMILES: CC(C)(C)NC[C@H](O)COc1nsnc1N1CCOCC1 [timolol maleate]
